# Test results taken from ChEMBL document CHEMBL1201862, “PubChem BioAssay data set” (2004).
# Values joined by “and” are separate entries in the source; they are usually repeats but may differ in a detail not shown here. Identical values can stand only once.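 Method: 48-hour compound exposure of cells in 96-well plates, five concentrations, linear interpolation of endpoints. Here, GI50 denotes the concentration required for 50% inhibition of growth.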 Active and inactive are the calls of the source. Rule as the data show it: active = GI50 up to about 1.1 µM and inactive = higher.
# Experiments:
# Experiment in all cases: inhibition of tumour cell growth, NCI panel, 48 h
# OVCAR-4 = system: OVCAR-4
# Malme-3M = system: Malme-3M
# NCI-H522 = system: NCI-H522
# HCC 2998 = system: HCC 2998
# UACC-257 = system: UACC-257
# TK-10 = system: TK-10
# UO-31 = system: UO-31
# LOX IMVI = system: LOX IMVI
# RXF 393 = system: RXF 393
# A498 = system: A498
# HOP-92 = system: HOP-92
# OVCAR-5 = system: OVCAR-5
# M19-MEL = system: M19-MEL
# SR = system: SR
# SNB-19 = system: SNB-19
# KM-20L2 = system: KM-20L2
# XF498 = system: XF498
# SK-MEL-28 = system: SK-MEL-28
# LXFL 529 = system: LXFL 529
# RPMI-8226 = system: RPMI-8226
# HCT-15 = system: HCT-15
# HCT-116 = system: HCT-116
# ACHN = system: ACHN
# SK-MEL-2 = system: SK-MEL-2
# M14 = system: M14
# CCRF-CEM = system: CCRF-CEM
# SNB-78 = system: SNB-78
# HT-29 = system: HT-29
# SK-MEL-5 = system: SK-MEL-5
# A549 = system: A549
# NCI-H460 = system: NCI-H460
# DLD-1 = system: DLD-1
# U-251 = system: U-251
# IGROV-1 = system: IGROV-1
# NCI-H23 = system: NCI-H23
# NCI-H226 = system: NCI-H226
# EKVX = system: EKVX
# SW-620 = system: SW-620
# SF-539 = system: SF-539
# KM12 = system: KM12
# CAKI-1 = system: CAKI-1
# DMS-114 = system: DMS-114
# K562 = system: K562
# SF-268 = system: SF-268
# UACC-62 = system: UACC-62
# SN12C = system: SN12C
# HOP-18 = system: HOP-18
# MOLT-4 = system: MOLT-4
# 786-0 = system: 786-0
# SK-OV-3 = system: SK-OV-3
# COLO 205 = system: COLO 205
smiles,measurement,setting,value
Cc1ccc(SSCC(O)C(O)CSSc2ccc(C)cc2)cc1 (configuration not stated),GI50,OVCAR-4,13.4 µM (inactive) and 14.3 µM (inactive)
same,GI50,Malme-3M,19 µM (inactive) and 15.3 µM (inactive)
same,GI50,NCI-H522,1.82 µM (inactive) and 1.76 µM (inactive)
same,GI50,HCC 2998,15 µM (inactive) and 14.2 µM (inactive)
same,GI50,UACC-257,15.6 µM (inactive) and 14.4 µM (inactive)
same,GI50,TK-10,15.6 µM (inactive) and 13.2 µM (inactive)
same,GI50,UO-31,4.08 µM (inactive) and 4.26 µM (inactive)
same,GI50,LOX IMVI,1.3 µM (inactive) and 1.89 µM (inactive)
same,GI50,RXF 393,3.92 µM (inactive) and 4.15 µM (inactive)
same,GI50,A498,4.51 µM (inactive)
same,GI50,HOP-92,17 µM (inactive) and 11.9 µM (inactive)
same,GI50,OVCAR-5,16.6 µM (inactive) and 22.8 µM (inactive)
same,GI50,M19-MEL,16.5 µM (inactive) and 11.6 µM (inactive)
same,GI50,SR,3.55 µM (inactive) and 3.29 µM (inactive)
same,GI50,SNB-19,15.1 µM (inactive) and 14.6 µM (inactive)
same,GI50,KM-20L2,13.1 µM (inactive) and 11.1 µM (inactive)
same,GI50,XF498,17.2 µM (inactive) and 13.7 µM (inactive)
same,GI50,SK-MEL-28,13.9 µM (inactive) and 14.9 µM (inactive)
same,GI50,LXFL 529,10.6 µM (inactive) and 6.01 µM (inactive)
same,GI50,RPMI-8226,3.66 µM (inactive) and 3.26 µM (inactive)
same,GI50,HCT-15,14.1 µM and 13.1 µM
same,GI50,HCT-116,12.1 µM (inactive) and 7.28 µM (inactive)
same,GI50,ACHN,11.2 µM (inactive) and 15.7 µM (inactive)
same,GI50,SK-MEL-2,8.18 µM (inactive)
same,GI50,M14,7.29 µM (inactive) and 5.58 µM (inactive)
same,GI50,CCRF-CEM,1.14 µM (inactive)
same,GI50,SNB-78,13.7 µM (inactive)
same,GI50,HT-29,13.3 µM (inactive) and 18.5 µM (inactive)
same,GI50,SK-MEL-5,7.31 µM (inactive) and 12.6 µM (inactive)
same,GI50,A549,10.6 µM (inactive) and 10.9 µM (inactive)
same,GI50,NCI-H460,17.5 µM (inactive) and 18.1 µM (inactive)
same,GI50,DLD-1,15 µM (inactive) and 14.1 µM (inactive)
same,GI50,U-251,2.03 µM (inactive) and 2.23 µM (inactive)
same,GI50,IGROV-1,2.99 µM (inactive) and 2.14 µM (inactive)
same,GI50,NCI-H23,5.94 µM (inactive) and 11.3 µM (inactive)
same,GI50,NCI-H226,15.2 µM (inactive) and 15.1 µM (inactive)
same,GI50,EKVX,14.1 µM (inactive) and 18.1 µM (inactive)
same,GI50,SW-620,7.55 µM (inactive) and 14.2 µM (inactive)
same,GI50,SF-539,3.42 µM (inactive) and 3.02 µM (inactive)
same,GI50,KM12,9.48 µM (inactive) and 11.1 µM (inactive)
COc1ccc(/C=N/N=C(\N)NO)cc1O,GI50,OVCAR-4,45.4 µM (inactive)
same,GI50,CAKI-1,48.2 µM (inactive)
same,GI50,Malme-3M,16.6 µM (inactive)
same,GI50,DMS-114,30.2 µM (inactive)
same,GI50,K562,82.8 µM (inactive)
same,GI50,NCI-H522,> 10 µM (inactive)
same,GI50,SF-268,32 µM (inactive)
same,GI50,HCC 2998,17.5 µM (inactive)
same,GI50,UACC-62,31.1 µM (inactive)
same,GI50,SN12C,30.9 µM (inactive)
same,GI50,UO-31,45 µM (inactive)
same,GI50,LOX IMVI,26.7 µM (inactive)
same,GI50,RXF 393,41.7 µM (inactive)
same,GI50,HOP-18,> 100 µM (inactive)
same,GI50,HOP-92,20.6 µM (inactive)
same,GI50,OVCAR-5,> 100 µM (inactive)
same,GI50,SNB-19,> 100 µM (inactive)
same,GI50,SK-MEL-28,49.8 µM (inactive)
same,GI50,LXFL 529,> 100 µM (inactive)
same,GI50,RPMI-8226,> 100 µM (inactive)
same,GI50,HCT-15,42.9 µM
same,GI50,HCT-116,37.5 µM (inactive)
same,GI50,SK-MEL-2,76.4 µM (inactive)
same,GI50,CCRF-CEM,> 100 µM (inactive)
same,GI50,SNB-78,> 100 µM (inactive)
same,GI50,HT-29,40.9 µM (inactive)
same,GI50,MOLT-4,> 100 µM (inactive)
same,GI50,SK-MEL-5,31.9 µM (inactive)
same,GI50,A549,27.6 µM (inactive)
same,GI50,NCI-H460,25.5 µM (inactive)
same,GI50,786-0,18.5 µM (inactive)
same,GI50,DLD-1,33.8 µM (inactive)
same,GI50,U-251,62.5 µM (inactive)
same,GI50,IGROV-1,84.1 µM (inactive)
same,GI50,SK-OV-3,80.2 µM (inactive)
same,GI50,NCI-H23,31.9 µM (inactive)
same,GI50,NCI-H226,33.4 µM (inactive)
same,GI50,EKVX,29.3 µM (inactive)
same,GI50,COLO 205,25.8 µM (inactive)
same,GI50,SW-620,44.7 µM (inactive)
same,GI50,SF-539,31.2 µM (inactive)
same,GI50,KM12,45.8 µM (inactive)
